The values that follow come from US20220401452A1, “USE OF INHIBITORS OF ENHANCER OF ZESTE HOMOLOG 2” (The Board Of Regents of The University of Texas System, priority 2019, published 2022).

In assay [1] the test system is C4-2B, LAPC4-CR and LNCaP-AI cells. In words: RT-qPCR of selected genes in C4-2B, LAPC4-CR and LNCaP-AI. The format is cell-based, human. The note with it: 5 μM, 72 hrs. The text has this:
The expression of these genes was examined in three other EZH2i-sensitive CRPC cell lines: C4-2B, LAPC4-CR and LNCaP-AI. FIG. 2D is a heat map of quantitative real-time RT-qPCR results showing changes in mRNA levels of selected gene in three prostate cancer cell lines (C4-2B, LAPC4-CR, and LNCaP-AI). […] EZH2-activated genes and EZH2-repressed genes are grouped together. […] Numbers, triplicates of samples from control or treatment group.
RNA isolation and RT-qPCR. RNA was extracted and purified using the TRIzol Reagent combined with RNeasy Mini Kit (Qiagen) according to manufacturer's protocols. 2 μg of total RNAs were then used for cDNA synthesis using High Capacity cDNA Reverse Transcription Kit (Applied Biosystems). Real-time quantitative RT-PCR was performed, and gene expression was calculated as described previously, using the formula 2-ΔΔCt relative to the level of GAPDH as the internal control.
(In qPCR the cycle at which signal appears reflects the starting amount.)

The subject of assay [2] is DU145 cells. In words: Gene expression by RNA-Seq in DU145 cells. The format is cell-based, human. To be noted: 5 μM, 72 hrs. As for the experimental part: (§1) Blue bars represent the percentage of genes in each specific functional category. The red line represents values of the false discovery rate (FDR) for the particular GO term. […] Two analyses were carried out to rule out the possible off-targeted effect of EZH2i on gene regulation. First, transcriptional profiles were compared in abl being treated with either EZH2i or in which EZH2 had been silenced using RNA interference (RNAi). Pharmacologic and genetic inhibition of EZH2 shared highly similar gene expression patterns.
(§2) Analysis of EZH2 Inhibitor Mediated Gene Expression by RNA-Seq. […] RNA-seq library was prepared using Illumina True-seq RNA sample preparation kit and sequenced to 50 bp using Illumina Hi-seq platform. RNA-seq data was mapped to human genome (hg19) using TopHat version 2.0.6. […] Differentially expressed genes were first filtered using LFC>0.5 or <−0.5, and then top 200 genes were selected through ranking by their p-values. The authentic target genes of EZH2 in abl cells were defined as those showing similar expression changes upon either EZH2 silencing or inhibitor treatment.

The test system of assay [3] is H3K27 methylation in prostate cell lines. The assay can be described thus: Western blot of H3K27 methylation levels in prostate cell lines. To be noted: all tested prostate cell lines; 1 or 5 μM. Format: cell-based, human. The text has this: In view of the canonical function of EZH2 in catalyzing H3K27me3, the mechanisms of how repressive chromatin mark contribute to the growth and gene inhibitory effects of EZH2i were investigated. […] Discrepancies between EZH2i-induced H3K27me3 reduction and cell insensitivity to EZH2i were also reported in lymphoma cells.
(In general: In western blotting, separated proteins are transferred to a membrane and probed.)

The test system of assay [4] is DU145 cells. In words: Growth curve of DU145 cells. The format is cell-based, human. The note with it: FIG. 9A. As for the experimental part:
Genetic inhibition of EZH2 suppressed growth of CRPC cells better than that of androgen-dependent prostate cancer cells. As EZH2 is a druggable enzyme with available small-molecule inhibitors, the efficacy of EZH2-targeting drugs was assessed in prostate cancer cells. […] Cells were grouped based on the basic characteristics. ADPC is androgen-dependent prostate cancer, and CRPC is castration-resistant prostate cancer. Concentrations as low as 500 nM of the EZH2 inhibitors (EZH2i) greatly retarded the growth of castration-resistant abl cells. […] Relatively higher doses of EZH2i were required to suppress the androgen-dependent LNCaP cells. […] This was consistent with a previous report that neither PC3 nor DU145 requires EZH2 for continued growth.

The subject of assay [5] is abl cells. The assay can be described thus: Gene expression by RNA-Seq in abl cells. The format is cell-based, human. The note with it: 5 μM, 72 hrs. As for the experimental part: as §1, §2
The test system of assay [6] is 668 cancer cells lines of various types. The note with it: CTRP data, cited from earlier work.
The next assay has as its system CWR22Rv1 xenografts. In words: Test of EZH2 inhibitors in CWR22Rv1 xenograft mouse model. Format: in vivo, castrated nude mice. The protocol: FIG. 1F is a growth curve of xenograft tumors in castrated nude mice injected with CWR22Rv1 cells receiving vehicle (Veh) or GSK126, at the indicated doses.
Test of EZH2 Inhibitors in Xenograft Mouse Model. Male nude mice (Taconic) were castrated after 3 days of accommodation. CWR22Rv1 xenografts were established in the flanks of mice by injecting ˜2 million cells in 50% Matrigel (BD Biosciences). […] Tumors were measured 3 times every week and harvested after 3 weeks. Frozen samples were subjected to RT-qPCR and immunoblotting to study the expression of selected genes. All animal protocols were approved by the Beth Israel Deaconess Institutional Animal Care and Use Committee, and the experiments were performed in accordance with institutional and national guidelines.

Assay [7] relates to DU145 cells. The assay can be described thus: Alkaline comet assay after ionizing radiation in DU145 cells. The format is cell-based, human. The note with it: 5 μM pretreatment 7 days, recovery 4 hrs. The protocol:
(§3) EZH2i can be administered to sensitize CRPC cells to DNA damage repair (DDR) agents. To validate this, abl, LNCaP and DU145 cells were exposed to increasing doses of ionizing radiation (IR). […] FIG. 6A is a graphical representation of the alkaline comet assays in abl cells. Prostate cancer cells were pretreated with vehicle (DMSO) or 5 μM GSK126 (GSK) for 7 days, and then exposed to increasing dosages of ionizing radiation (IR) followed by recovery for 4 hrs. FIG. 6B is a set of photographic images of each IR dosage corresponding to the dosages in FIG. 6A. FIG. 6C is a graphical representation of the alkaline comet assays in LNCaP cells. […]
(§4) FIG. 15A is a graphical representation of the alkaline comet assay results in abl cells after pretreatment with vehicle (DMSO) or 5 μM GSK126 (GSK) for 7 days and then being exposed to 5 gray (Gy) ionizing radiation (IR) followed by recovery at indicated time points (Quantification of the results using “Olive Tail Moment” parameter). […] FIG. 15C is a graphical representation of the alkaline comet assay results in LNCaP cells after pretreatment with vehicle (DMSO) or 5 μM GSK126 (GSK) for 7 days and then being exposed to 5 gray (Gy) ionizing radiation (IR) followed by recovery at indicated time points (Quantification of the results using “Olive Tail Moment” parameter). […]

Another assay has as its system LNCaP cells. The assay can be described thus: Alkaline comet assay after ionizing radiation in LNCaP cells. Format: cell-based, human. To be noted: 5 μM pretreatment 7 days, recovery 4 hrs. As for the experimental part: as §3, §4
Assay [8] has as its system abl cells. In words: Alkaline comet assay after ionizing radiation in abl cells. Format: cell-based, human. To be noted: 5 μM pretreatment 7 days. The protocol:
as §3, §4

Take `CCN(c1cc(-c2ccc(CN3CCOCC3)cc2)cc(C(=O)NCc2c(C)cc(C)[nH]c2=O)c1C)C1CCOCC1` [EPZ-6438]: the “expression of EZH2-repressed genes” value in assay [1] is given as “upregulated EZH2-repressed genes to some extent”. Further, in the assay on DU145 cells [2], the “gene expression pattern in EZH2i-insensitive DU145 cells” value was “largely de-repressed genes”. Besides, the “total H3K27 di- and tri-methylation levels” value in assay [3] was “reduced total H3K27 di- and tri-methylation levels in a dose-dependent manner”. The “inhibitory effect on growth of AR-null DU145” value in the assay on DU145 cells [4] is recorded as “minimal”. In addition, the “gene expression pattern in abl cells” value in the assay with abl cells [5] is “a large number of genes were significantly downregulated”.
Turning to `C[C@H]1CN([C@@H](C)CO)S(=O)(=O)c2ccc(C#CCC3CCCC3)cc2O[C@@H]1CN(C)Cc1ccc(C(=O)O)cc1` [BRD], the “potency by EZH2 mutation status” value in assay [6] (GOF vs LOF p=0.2705, GOF vs None p=1.000) is given as “does not show higher potency”. The “sensitivity of cell lines by expression of DNA repair genes” value in [6] (top 25% highest vs bottom 25% lowest expression) was “much more susceptible”.
Consider `CC[C@H](C)n1cc(C)c2c(C(=O)NCc3c(C)cc(C)[nH]c3=O)cc(-c3ccc(N4CCNCC4)nc3)cc21` [GSK126], for which the xenograft tumor growth entry with CWR22Rv1 xenografts (CWR22Rv1 subcutaneous xenografts, castrated mice, daily injection, 21 days of treatment) is “significantly retarded tumor growth”. Also, the “mRNA and protein levels of EZH2-activated genes in xenograft tumor tissues” value with CWR22Rv1 xenografts (CWR22Rv1 xenografts) was “consistent decrease”. For the same compound, the “expression of EZH2-repressed genes” value in assay [1] is given as “upregulated EZH2-repressed genes to some extent”. The figures for the “difference in sensitivity to ionizing radiation (comet assay)” value with DU145 cells [7] and in the assay with LNCaP cells were “non-existent” and “very minor”, respectively. Also, the “gene expression pattern in EZH2i-insensitive DU145 cells” value with DU145 cells [2] is “largely de-repressed genes”. Moreover, the “DNA damage repair after 5 Gy IR (Olive Tail Moment over recovery time)” value in the assay on abl cells [8] is given as “drastically delayed DNA damage repair”. In the assay with abl cells [8] (recovery 4 hrs), the “sensitivity to increasing doses of ionizing radiation (comet assay)” value is on record as “became much more sensitive to IR”. The “total H3K27 di- and tri-methylation levels” value in [3] is “reduced total H3K27 di- and tri-methylation levels in a dose-dependent manner”. Further, the “inhibitory effect on growth of AR-null DU145” value in the assay with DU145 cells [4] is given as “minimal”. The “gene expression pattern in abl cells” value in the assay on abl cells [5] is given as “a large number of genes were significantly downregulated”.
